Test results taken from US20060216356A1, “Detection of antibacterial activity in excretory secretory product of adult trichuris suis” (Board of Trustees of Michigan State University, priority 2000, published 2006).
Values after ≈ are worked out from the molar mass of the structure shown. Structures can show the parent of a compound that is named as a salt.

Assays:
Campylobacter jejuni [1] = test: Broth microdilution MIC/MBC and antibacterial titer on Campylobacter jejuni; format: cell-based
Protocol: Bacterial strains and media. The antibacterial activity in Trichuris suis ESP was originally observed using Campylobacter jejuni (ATCC 33292), and this was the strain on which most experiments were performed for this preliminary characterization. Several Campylobacter jejuni and Campylobacter coli isolates were used for MIC determinations (Table 1).
Additional quality control organisms routinely used for antimicrobial susceptibility assays were tested, including Enterococcus faecalis (ATCC 29212), Staphylococcus aureus (ATCC 25923), Escherichia coli (ATCC 25922), Pseudomonas aeruginosa (ATCC 27853), and Streptococcus pneumonia (ATCC 49619). […]
(§1) A broth microdilution method in 96 well plates was used to obtain qualitative and quantitative measures of antibacterial activity. Qualitatively, 50 μl samples of ESP were added to 50 μl suspensions of Campylobacter jejuni (containing about 5×10^5 cfu, as determined by standard serial dilution and plating) in 96 well plates. Plates were evaluated for growth as indicated by the presence of either turbidity or pellet of bacterial cells in the bottoms of U-shaped wells after 48 hr incubation.
To quantify activity and determine the minimum inhibitory concentration (MIC) of ESP against test organisms, serial two-fold dilutions of 20×-concentrated ESP were prepared in 50 μl volumes of MHB (n=2). […]

Campylobacter jejuni [2] = test: HPLC fractionation with qualitative broth microdilution bioassay of fractions; format: cell-based; conditions: C18 reverse phase HPLC, 5-80% ACN gradient in TFA
Protocol: as §1
High performance liquid chromatography. A Model 173 high performance liquid chromatography (HPLC) system (Perkin Elmer Applied Biosystems, Inc., Foster City, Calif.) at the Michigan State University Macromolecular Structure Facility was used to fractionate Trichuris suis ESP for preliminary isolation of the antibacterial activity (Hearn, Meth. Enzymol. 104: 190-212 (1984)). Samples (150 μl) of ESP were mixed with an equal volume of 0.1% trifluoroacetic acid (TFA) and centrifuged at full speed (11,000×g) at room temperature for 15 minutes. […] Absorbance of the eluate was monitored at 214 nm, and fractions were collected manually as peaks were detected. […]

Campylobacter jejuni [3] = test: Effect of boiling on antibiotics, qualitative broth microdilution assay; format: cell-based; conditions: 1x concentration, boiled for 10 minutes
Protocol: as §1, with “incubation. […] The size of the drug was also taken into consideration. Additionally, an experiment to assess the heat stability of the antibiotics was performed.” for “incubation.”

[4] = n-octanol/water partition coefficient (log PC) of antibiotics; format: physicochemical; conditions: in parentheses beside log PC
Protocol: Consideration of CAP contamination. […] Using the worst-case scenario, the predicted maximum amount of CAP absorbed and how much would be released into the medium if the whipworms dissolved (i.e., released 100%) was estimated. […] It was assumed that the aggregate whipworm volume of these eccentrically shaped nematodes occupied 4% of the incubation well volume (4 whipworms/ml at about 10 μl/whipworm).

[5] = compiled from a drug database at Upjohn; cited from earlier work

MIC (Campylobacter jejuni [1]) [µg/mL]	Structure (SMILES)	antibacterial activity of HPLC fractions (Campylobacter jejuni [2])	Antibacterial activity after boiling (Campylobacter jejuni [3])	Concentrating factor [4] [x]	log PC (n-octanol/water partition coefficient) [5]
~2 (≈ 6.19 µM)	O=C(N[C@H](CO)[C@H](O)c1ccc([N+](=O)[O-])cc1)C(Cl)Cl [Chloramphenicol]	one fraction with antibacterial activity	+		
	CC1(C)S[C@@H]2[C@H](NC(=O)Cc3ccccc3)C(=O)N2[C@H]1C(=O)O [Penicillin G]		−	71	185
	[H]/N=C(/N)N[C@H]1[C@H](O)[C@@H](O)[C@H](O[C@@H]2O[C@@H](C)[C@](O)(C=O)[C@H]2O[C@@H]2O[C@@H](CO)[C@H](O)[C@@H](O)[C@@H]2NC)[C@@H](N/C(N)=N\[H])[C@@H]1O [Streptomycin sulfate]		+		−9.53(—)
